Experimental data as given in PubChem BioAssay AID1963854 (Molecular Pharmacology Branch, DTP, NCI, 2024).
Values joined by “and” are separate entries in the source; they are usually repeats but may differ in a detail not shown here. Equal entries are not always repeated.

System: 186277-243-T-J2-PDC complex spheroid viability
Experiment: Anticancer human tumor 186277-243-T-J2-PDC patient-derived colon adenocarcinoma cell line growth inhibition [POLQ]
Settings: for viability, T/C: stronger effect = lower value
Experimental: Multicellular complex tumor spheroid response to Polymerase (POL) inhibitors (novobiocin, ART-558, RP6685) in combination with a variety of drugs and investigational agents in selected tumor cell lines
The POL inhibitors (novobiocin, ART-558, and RP6685) were evaluated both individually and in combination with standard of care and investigational anticancer small molecules within a complex spheroid model of solid tumors. . Complex spheroids include a stromal component modeled by human endothelial cells (HUVEC) and fibroblasts modeled by human mesenchymal stem cells (MSCs). The concentration ranges selected for each drug and investigational agent were based upon clinically achievable concentrations if the clinical Cmax of the agent was known.
Compounds. The drugs and investigational agents: novobiocin (NSC847541), ART-558 (NSC835418), RP-6685 (NSC848927), peposertib (NSC802822), ceralasertib (NSC780249), elimusertib (NSC800525), camonsertib (NSC841442), AZD-1390 (NSC803789), olaparib (NSC753686), talazoparib (NSC767125), rucaparib (NSC756644), sotorasib (NSC818433), MRTX-1133 (NSC836407), SN-38 (NSC673596), topotecan (NSC609699), epotoside (NSC141540), doxorubicin (NSC123127), gemcitabine (NSC613327), 5-fluorouracil (NSC19893), paclitaxel (NSC125973), vemurafenib (NSC761431), MSA-2 (NSC828583), SN-011 (NSC837082), adavosertib (NSC754352), prexasertib (NSC758257), carboplatin (NSC241240) and oxaliplatin (NSC266046), were obtained from the National Cancer Institute (NCI) Developmental Therapeutics Program Chemical Repository (21). The FDA-approved anticancer drug set is available from the Developmental Therapeutics Program at https://dtp.cancer.gov/organization/dscb/obtaining/. […] The stock solutions were prepared in dimethyl sulfoxide (DMSO, Sigma-Aldrich, St. Louis, MO, cat. D2650), except for the platinum compounds which were prepared in saline (Quality Biological, Gaithersburg, MD, cat. 114-055-101), at 800-fold the tested concentration and stored at -70 degrees C prior to their use. All drugs and investigational agents were tested over a range starting from a high concentration at or near the clinical Cmax and decreasing in half-log increments. If the clinical Cmax for an agent had not been determined, the highest concentration tested was 10 microM, except for SN-38, which was tested at a high concentration of 1 microM.
Cell Culture. All cells were maintained in an incubator at 37 degrees C and 5% CO2 with 95% humidity. The PDC lines were cultured according to standard operating procedures established by the NCI PDMR (https://pdmr.cancer.gov). Table 3 of the manuscript, lists the cell lines along with the number of the three cell types plated to form the mct-spheroids and media for tumor cell growth. After thawing, all PDC lines, except 997537-175-T-J1-PDC and 415267-285-R-J2-PDC, were cultured in Matrigel-coated flasks prepared with a working solution of 1X Ham's F-12 nutrient mix, without supplementation (Thermo Fisher Scientific, cat. 11765054), 100 U/mL penicillin-streptomycin (Thermo Fisher Scientific, cat. 15140122), and 2.5% Matrigel (Corning Inc., Corning, NY, cat. 354248) for the first three passages. The two PDC lines 997537-175-T-J1-PDC and 415267-285-R-J2-PDC were cultured on uncoated flasks. The 857933-349-R-J2-PDC line was cultured in 6C/Colon 1B media containing advanced DMEM/F-12 (Thermo Fisher Scientific, cat. 12634028), 10 mM HEPES (Thermo Fisher Scientific, cat. 15630080), 1X GlutaMAX supplement (Thermo Fisher Scientific, cat. 35050061), 0.1 mg/mL primocin (InvivoGen, San Diego, CA, cat. ant-pm-2), 10% defined fetal bovine serum, heat inactivated (HyClone Laboratories Inc., Logan, UT, cat. SH30070.03HI), 50% L-WRN conditioned media (ATCC, cat. CRL-3276), 1.25 mM N-Acetyl-L-cysteine (Sigma-Aldrich, cat. A9165), 10 mM nicotinamide (Sigma-Aldrich, cat. N0636), 1X B-27 supplement (Thermo Fisher Scientific, cat. 17504044), 1X N-2 supplement (Thermo Fisher Scientific, cat. […]

[1] = curve of first compound, second compound 0.0316 µM
[2] = curve of first compound, second compound 0.1 µM
[3] = curve of first compound, second compound 0.316 µM
[4] = curve of first compound, second compound 1 µM
[5] = curve of first compound, second compound 3.16 µM
[6] = curve of first compound, second compound 10 µM
[7] = second compound 0.0316 µM, first compound 0.0316 µM
[8] = second compound 0.0316 µM, first compound 0.1 µM
[9] = second compound 0.0316 µM, first compound 0.316 µM
[10] = second compound 0.0316 µM, first compound 1 µM
[11] = second compound 0.0316 µM, first compound 3.16 µM
[12] = second compound 0.0316 µM, first compound 10 µM
[13] = second compound 0.1 µM, first compound 0.0316 µM
[14] = second compound 0.1 µM, first compound 0.1 µM
[15] = second compound 0.1 µM, first compound 0.316 µM
[16] = second compound 0.1 µM, first compound 1 µM
[17] = second compound 0.1 µM, first compound 3.16 µM
[18] = second compound 0.1 µM, first compound 10 µM
[19] = second compound 0.316 µM, first compound 0.0316 µM
[20] = second compound 0.316 µM, first compound 0.1 µM
[21] = second compound 0.316 µM, first compound 0.316 µM
[22] = second compound 0.316 µM, first compound 1 µM
[23] = second compound 0.316 µM, first compound 3.16 µM
[24] = second compound 0.316 µM, first compound 10 µM
[25] = second compound 1 µM, first compound 0.0316 µM
[26] = second compound 1 µM, first compound 0.1 µM
[27] = second compound 1 µM, first compound 0.316 µM
[28] = second compound 1 µM, first compound 1 µM
[29] = second compound 1 µM, first compound 3.16 µM
[30] = second compound 1 µM, first compound 10 µM
[31] = second compound 3.16 µM, first compound 0.0316 µM
[32] = second compound 3.16 µM, first compound 0.1 µM
[33] = second compound 3.16 µM, first compound 0.316 µM
[34] = second compound 3.16 µM, first compound 1 µM
[35] = second compound 3.16 µM, first compound 3.16 µM
[36] = second compound 3.16 µM, first compound 10 µM
[37] = second compound 10 µM, first compound 0.0316 µM
[38] = second compound 10 µM, first compound 0.1 µM
[39] = second compound 10 µM, first compound 0.316 µM
[40] = second compound 10 µM, first compound 1 µM
[41] = second compound 10 µM, first compound 3.16 µM
[42] = second compound 10 µM, first compound 10 µM
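Also: spheroids exposed to compounds for seven days.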
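For viability, T/C in this document: 100% = DMSO vehicle control viability.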

## CCc1cc2c(N3CCc4c(cc(Cn5ccnc5)cc4-c4cn(C)nc4C(F)(F)F)C3=O)ccnc2c(OC)n1 + Nc1ccc(C#CCN(C(=O)Cc2ncc(C(F)(F)F)cc2C(F)(F)F)c2ccc(F)cc2)nn1
[1]
  IC50: > 10 µM
[2]
  IC50: > 10 µM
[3]
  IC50: > 10 µM
[4]
  IC50: > 10 µM
[5]
  IC50: > 10 µM
[6]
  IC50: > 10 µM
[7]
  viability, T/C: 94.6%
[8]
  viability, T/C: 95.7%
[9]
  viability, T/C: 91.6%
[10]
  viability, T/C: 85.6%
[11]
  viability, T/C: 96.3%
[12]
  viability, T/C: 111%
[13]
  viability, T/C: 90.2%
[14]
  viability, T/C: 92.2%
[15]
  viability, T/C: 100%
[16]
  viability, T/C: 97.8%
[17]
  viability, T/C: 119%
[18]
  viability, T/C: 95.5%
[19]
  viability, T/C: 88.8%
[20]
  viability, T/C: 111%
[21]
  viability, T/C: 90.9%
[22]
  viability, T/C: 108%
[23]
  viability, T/C: 104%
[24]
  viability, T/C: 114%
[25]
  viability, T/C: 103%
[26]
  viability, T/C: 102%
[27]
  viability, T/C: 93.1%
[28]
  viability, T/C: 94.6%
[29]
  viability, T/C: 110%
[30]
  viability, T/C: 105%
[31]
  viability, T/C: 109%
[32]
  viability, T/C: 98.7%
[33]
  viability, T/C: 112%
[34]
  viability, T/C: 100%
[35]
  viability, T/C: 106%
[36]
  viability, T/C: 94.2%
[37]
  viability, T/C: 117%
[38]
  viability, T/C: 99%
[39]
  viability, T/C: 100%
[40]
  viability, T/C: 117%
[41]
  viability, T/C: 121%
[42]
  viability, T/C: 90.9%

## CC1COCCN1c1cc(-c2ccnn2C)c2ccnc(-c3ccn[nH]3)c2n1 (stereo unspecified)
Compound 0.0316 µM
  viability, T/C: 71.3% and 65.3% and 109%
Compound 0.1 µM
  viability, T/C: 13% and 10.7% and 26.4%
Compound 0.316 µM
  viability, T/C: 5.52% and 4.67% and 10.7%
Compound 1 µM
  viability, T/C: 4.69% and 4.34% and 7.36%
Compound 3.16 µM
  viability, T/C: 4.26% and 2.97% and 6.64%
Compound 10 µM
  viability, T/C: 4.3% and 3.61% and 9.38%
Curve of compound
  IC50: 0.0482 µM and 0.0437 µM and 0.0722 µM

## C#Cc1c(F)ccc2cc(O)cc(-c3ncc4c(N5CC6CCC(C5)N6)nc(OCC56CCCN5CC(F)C6)nc4c3F)c12 (stereo unspecified) + COC1C(OC(N)=O)C(O)C(Oc2ccc3c(O)c(NC(=O)c4ccc(O)c(CC=C(C)C)c4)c(=O)oc3c2C)OC1(C)C
[1]
  IC50: 0.0881 µM
[2]
  IC50: 0.0919 µM
[3]
  IC50: 0.098 µM
[4]
  IC50: 0.0955 µM
[5]
  IC50: 0.0882 µM
[6]
  IC50: 0.0746 µM
[7]
  viability, T/C: 78.8%
[8]
  viability, T/C: 47.2%
[9]
  viability, T/C: 17.3%
[10]
  viability, T/C: 13.3%
[11]
  viability, T/C: 5.89%
[12]
  viability, T/C: 3.8%
[13]
  viability, T/C: 73.6%
[14]
  viability, T/C: 48.1%
[15]
  viability, T/C: 24.4%
[16]
  viability, T/C: 10.3%
[17]
  viability, T/C: 8.42%
[18]
  viability, T/C: 3.79%
[19]
  viability, T/C: 87.3%
[20]
  viability, T/C: 49.5%
[21]
  viability, T/C: 21.1%
[22]
  viability, T/C: 9.93%
[23]
  viability, T/C: 5.5%
[24]
  viability, T/C: 3.94%
[25]
  viability, T/C: 92.4%
[26]
  viability, T/C: 48.4%
[27]
  viability, T/C: 15.6%
[28]
  viability, T/C: 8.5%
[29]
  viability, T/C: 5.97%
[30]
  viability, T/C: 3.63%
[31]
  viability, T/C: 73.6%
[32]
  viability, T/C: 47.1%
[33]
  viability, T/C: 19.5%
[34]
  viability, T/C: 7.53%
[35]
  viability, T/C: 5.69%
[36]
  viability, T/C: 3.42%
[37]
  viability, T/C: 74.3%
[38]
  viability, T/C: 42%
[39]
  viability, T/C: 18%
[40]
  viability, T/C: 9.65%
[41]
  viability, T/C: 8.31%
[42]
  viability, T/C: 3.67%
